System: human ADH
Assay: cloned human ADH assay (NADH absorbance at 340 nm)
Type: biochemical
Conditions: for ADH inhibitory activity (%): 0.1 M glycine buffer pH 10, 2.4 mM NAD+, 33 mM ethanol
Description: ADH inhibitory activity of ajoene obtained in Example 1 was examined by means of a cloned human ADH assay wherein human ADH is treated with ajoene at different concentrations, and the results are shown in Table 1 below. Here, the ADH assay employed 0.1 M glycine buffer (pH 10) as a reaction buffer and 2.4 mM NAD^+ and 33 mM ethanol in a subtrate. ADH inhibitory activity was determined by measuring the absorbance of NADH at 340 nm using a microplate reader.

## C=CCSSC=CC[S+]([O-])CC=C (stereo not shown) [ajoene, 4,5,9-trithiadodeca-1,6,11-triene-9-oxide]
Ajoene 0.1 μg/ml
  ADH inhibitory activity (%): 0%
Ajoene 0.9 μg/ml
  ADH inhibitory activity (%): 50%
Ajoene 1 μg/ml
  ADH inhibitory activity (%): 60%
Ajoene 10 μg/ml
  ADH inhibitory activity (%): 85%
Ajoene 50 μg/ml
  ADH inhibitory activity (%): 100%
Ajoene 100 μg/ml
  ADH inhibitory activity (%): 100%
Cloned human ADH, from Table 1
  inhibitory concentration of 50% (IC50) on ADH activity: 0.9 µg/mL

Reference: patent US20070031520A1, “Method of using ajoene as alcohol dehydrogenase inhibitor, composition for removing hangover comprising ajoene and method of preparing the same” (priority 2005, published 2007)
